# Source: patent publication US9290740B2, “Use of basic fibroblast growth factor in the de-differentiation of animal connective tissue cells” (Worcester Polytechnic Institute, priority 2008, dated 2016)
# Several values for one entry are separate records, joined by “and”; a condition that tells them apart may be missing. Equal values may be shown once.
# What was measured:
# Assay type in all cases: cell-based
# [1] = system: adult human dermal fibroblasts (CRL-2352); experiment: Effect of FGF2 and oxygen level on proliferation and in vitro lifespan (population doublings to senescence); conditions: FGF2 10 ng/ml
# [2] = system: adult human dermal fibroblasts (CRL-2352); experiment: as above
# Method: Adult human fibroblasts (cell line CRL-2352) derived from connective tissue isolated from tissue derived from a below knee amputation of a person were received from American type Tissue Culture Collection (ATCC) (Manassas, Va.) as cryopreserved vials and were stored in liquid nitrogen until use. Cells were thawed at 37 C and added dropwise to 10 ml of basal culture medium (CM-1A, 45% DMEM without L-gln or phenol red (MediaTech, Manassas, Va.) with 4 mM L-Gln (MediaTech), 45% Hams F12 Medium (MediaTech), and 10% Fetalclone III (Hyclone, Logan, Utah)). The cell suspension was centrifuged at 700×g for 5 min, the medium aspirated and the pellet resuspended in fresh CM1A culture medium. Cells were seeded at a density of 0.5×106 in 10 ml of medium in T75 tissue culture flasks (BD Falcon). Cultures were carried out in a 37 C incubator in a humidified environment of 5% CO2, 5% O2, 90% N2. Cells were passaged at routine intervals at approximately 70-90% confluence using Trypsin-EDTA solution (MediaTech) diluted 1:5 in DPBS without Ca2+/Mg2+ (MediaTech). At each passage, cells were counted using a Levy Counting chamber (Hausser Scientific) and the number of population doublings calculated as log 2. For comparative studies, human recombinant FGF2 (either Invitrogen or Chemicon) was supplemented into CM1A at 4 ng/ml (medium designated CM2A) from a 100 μg/ml stock solution in DPBS (MediaTech).
# Cells were passaged continuously at either 3 or 4 day intervals without interruption until in vitro senescence was reached. Two replicate T25 vessels of cells for each treatment (with or without FGF2) were seeded at each passage with 100,000 cells per vessel. The average number of population doublings (PDs) was calculated at each passage and cumulative PDs plotted versus time (days) in culture (FIG. 1).
# Cells were thawed and seeded at equal density into T25 cell culture flasks (BD Falcon) and cultured at 37° C., 5% CO2, balance air (high O2); and 37° C., 5% CO2, 5% O2, 90% N2 (low O2). For each oxygen tension level, cells were also cultured with and without FGF2 (4 ng/ml). Cells were passaged at 3 or 4 day intervals, counted and 100,000 cells re-seeded at each passage. The number of population doublings at each passage was determined and cumulative population doublings compared between low and high O2 treatment groups. In addition, at day 28 of culture, FGF2 was removed from a population of cells and the culture continued to monitor the long term effect of previous culture with FGF2.
# Primary adult human dermal fibroblasts from connective tissue isolated from tissue biopsy from a below knee amputation of a person were received from ATCC(CRL-2352) at passage 2. Cells were cultured in medium consisting of DMEM:Ham's F12 ([…], MediaTech) with 10% Fetalclone III (Hyclone, Logan, Utah). The DMEM (without L-Gln or phenol red) was supplemented with 4 mM fresh L-Gln (MediaTech) prior to use. Cultures were carried out in a 37° C. incubator in a humidified environment of 5% CO2, 5% O2, and 90% N2. The number of population doublings calculated as log2. Cells were seeded at 100,000 cells per T25 flask at each passage (Falcon). […] Human muscle derived fibroblasts were derived from surplus muscle tissue from the calf flexor muscle used for a surgical knee repair in an adult. Tissue was rinsed in Leibowitz L-15 medium (MediaTech) containing 10 μg/ml gentamicin (Invitrogen) and 2.5 μg/ml fungizone (Hyclone) and minced using a sterile scalpel and digested with 1800 units/ml collagenase Type IV for 1 hour at 37° C. Cell lines were established by culture at 5% O2 from the beginning and working stocks cryopreserved at passage 2.
# [3] = system: Oct4, Sox2, Nanog, Rex1, Lin28, Klf4, TERT mRNA in adult human fibroblasts; experiment: RT-PCR and qRT-PCR of stem cell gene transcripts
# Method: RNA was extracted using TRIzol® reagent (Invitrogen) according to the manufacturer's protocol and quantified by spectrophotometry. 2 μg of RNA was subjected to DNase I digestion, followed by a reverse transcription using a QuantiTech® Reverse transcription kit (Qiagen) with a mixture of oligo-dT and random hexamers primers. 50 ng/well of cDNA was used as template in qPCR reactions with oligonucleotides specific for the genes of interest (Table 1 of Supplementary Information). A non-template control (NTC) and an RNA sample without RT for each sample were used to control for potential contaminating DNA. All qPCR reactions were performed in triplicate with the resultant values being combined into an average threshold cycle (CT). The efficiency of qPCR was calculated from the slope of a relative standard curve using GAPDH primers. Relative quantification was determined using a 7500 Real Time PCR system (Applied Biosystems) measuring SYBR green fluorescence (PerfeCTa™ SYBR Green FastMix, Low ROX (Quanta Biosciences)). Fold differences are calculated using the ΔΔCT method with the formula 2^−ΔΔCt. (Liss, B., “Improved quantitative real-time RT-PCR for expression profiling of individual cells”, Nucleic Acids Research 30(17), e89, 2002). Expression profiles for the mRNA transcripts are shown as fold differences in comparison to mRNA levels in control (untreated) fibroblast cells.
# Total RNA was isolated using Trizol (Invitrogen) following the manufacturer's protocol. Four μg of total RNA was used to perform first strand cDNA synthesis using Superscript (Invitrogen). For RT-PCR, 0.5 μl of the first strand cDNA was used as template. PCR was performed in Mg^2+ free PCR buffer (TaKara) supplemented with 1.5 mM MgCl2, 200 μM each of dNTPs, 25 pmoles each of forward and reverse primers and 0.5 U of TaKara ExTaq polymerase per reaction. PCR cycling was done as follows: Initial denaturation at 95° C. for 2 minutes followed by 35 cycles of denaturation at 95° C. for 15 seconds; annealing at primer-specific annealing temperature for 1 minute; and extension at 72° C. for 1:30 minutes. Final extension was done at 72° C. for 10 minutes and the samples held at 4° C. until use. Amplification products were resolved on 2% agarose gels containing 0.5 μg/ml ethidium bromide in 1×TAE buffer and photographed using a Kodak […] Image Station.
# [4] = reduced oxygen culture plus FGF2
substance,measurement,setting,value
"FGF2: human recombinant FGF2 (Invitrogen, Chemicon or Protide), basic fibroblast growth factor",effect on adult fibroblast proliferation at 10 ng/ml,[1],halted adult fibroblast proliferation
same,"population doublings at senescence, low O2 with FGF2","[2]; FGF2 4 ng/ml, 5% O2",65 PDs and 70 PDs
same,proliferation rate versus cells without FGF2,"[2]; FGF2 4 ng/ml, 5% O2",proliferated more rapidly
same,additional population doublings achieved by addition of FGF2 (on average),"[2]; FGF2 4 ng/ml, 5% O2, until replicative senescence",19 population doublings
same,"population doublings at senescence, atmospheric oxygen with FGF2","[2]; FGF2 4 ng/ml, atmospheric oxygen",49 PDs and 50 PDs
same,cell morphology,"[2]; FGF2, 5% O2",smaller cells with a more spindle shape
same,karyotype,[2]; FGF2/low oxygen-treated fibroblasts,maintained normal karyotype
same,increase in longevity / cell passage over primary cells cultured without these conditions,[2]; FGF2 and low oxygen conditions,two fold increase
same,number of passages observed,"[2]; FGF2 and low oxygen conditions, primary cells typically about 20 to 30",70 times
same,"transcription of Oct4, Nanog and Klf4 (RT-PCR)","[3]; 5% oxygen, FGF2 supplemented, day 7",increased
same,"transcription of Sox2, Rex1 and Lin28 (RT-PCR)","[3]; 5% oxygen, day 7",significant transcriptional dependence on FGF2
same,Lin28 mRNA levels (qRT-PCR),[3]; [4],further increased
same,Rex1 and TERT mRNA (qRT-PCR),[3]; [4],not further affected
